Patent US6969711B2, “Cyclic diamine compounds and medicine containing the same” (Kowa Company, Ltd., priority 1997, dated 2005)
pIC50: −log10 of the molar value. Values after ≈ are worked out from the molar mass of the structure shown.

Legend:
J774 cells = assay: ACAT inhibitory action (anti-foaming action) in J774 cells; type: cell-based; conditions: Mus musculus, 10 μg/ml 25-OH cholesterol, 18 hours, cholesterol ester per protein, read-out: Enzyme (J774) IC50
[1] = Disintegration test (solubility in liquid No. 1 of the Japanese Pharmacopoeia); type: physicochemical; conditions: simulated gastric fluid, thermodynamic from solid; liquid No. 1 for disintegration test (Japanese Pharmacopoeia), pH 1.2, shaken two hours, room temperature, 0.45 μm filtrate
Source text: Compounds of the present invention and the compounds mentioned in the previously-filed Japanese Patent Applications Hei-09/88660 (hereinafter, referred to as “A”) and Hei-09/90146 (hereinafter, referred to as “B”) as controls were suspended in a liquid No. 1 for disintegration test regulated by the Japanese Pharmacopoeia, shaken for two hours, allowed to stand at room temperature for one hour and filtered through a membrane filter of 0.45 μm. Absorbance of a mixture of this filtrate with methanol in the same amounts was measured and, from the previously-determined ε1% 1cm values, solubility was calculated.

HepG2 cells = assay: ACAT inhibitory action (anti-foaming action) in HepG2 cells; type: cell-based; conditions: Homo sapiens, 10 μg/ml 25-OH cholesterol, 18 hours, cholesterol ester per protein, read-out: Enzyme (HepG2) IC50

| Structure (SMILES) | solubility at 2 h [1] | melting point | further results |
| --- | --- | --- | --- |
| CCCCCCCCCN(CC(C)(C)C)C(=O)N[C@H]1CCCC[C@@H]1OC(=O)CCNC(=O)C1OC(C)(C)OCC1(C)C (some centres unmarked) [Control 3, reference compound] | – | – | pIC50 (J774 cells): 6.49 |
| CC(C)c1cccc(C(C)C)c1NC(=O)CCCCCSc1nc2ccccc2o1 [Control 6, 6-(Benzoxazol-2-ylthio)-N-(2,6-diisopropylphenyl)hexanamide, reference compound] | 0.05 µg/mL (≈ 0.000118 mM) | – | – |
| CC(C)c1cccc(C(C)C)c1NC(=O)CCCCCSc1nc2cc(CN(C)C)ccc2o1 [Control 7, 6-[5-(N,N-Dimethylaminomethyl)-benzoxazol-2-ylthio]-N-(2,6-diisopropylphenyl)hexanamide, reference compound] | 360 to 400 µg/mL (≈ 0.747 to 0.83 mM) | – | – |
| CC(C)c1cccc(C(C)C)c1NC(=O)CCCCCSc1nc2cc(N(C)C)ccc2o1 [Control 8, 6-[5-(N,N-Dimethylamino)-benzoxazol-2-ylthio]-N-(2,6-diisopropylphenyl)hexanamide, reference compound] | 170 to 180 µg/mL (≈ 0.363 to 0.385 mM) | – | – |
| CC(C)c1cccc(C(C)C)c1NC(=O)CN1CCN(CCSc2nc3ccccc3o2)CC1 [Example 1, 2-[4-[2-(benzoxazol-2-ylthio)ethyl]-piperazin-1-yl]-N-(2,6-diisopropylphenyl)acetamide] | 14000 µg/mL (≈ 29.1 mM) | – | – |
| COC(=O)c1cccc2oc(SCCN3CCN(CC(=O)Nc4c(C(C)C)cccc4C(C)C)CC3)nc12 [Example 5, 2-[4-[2-(4-methoxycarbonylbenzoxazol-2-ylthio)ethyl]-piperazin-1-yl]-N-(2,6-diisopropylphenyl)acetamide] | – | 173 to 175 °C | pIC50 (J774 cells): 7.00; pIC50 (HepG2 cells): 5.84 |
| CC(C)c1cccc(C(C)C)c1NC(=O)CN1CCN(CCSc2nc3ncccc3o2)CC1 [Example 6, 2-[4-[2-(oxazolo[4,5-b]pyridine-2-ylthio)ethyl]-piperazin-1-yl]-N-(2,6-diisopropylphenyl)acetamide] | 35000 µg/mL (≈ 72.7 mM) | 153 to 154 °C | – |
| COC(=O)c1cccc2nc(SCCCN3CCN(CC(=O)Nc4c(C(C)C)cccc4C(C)C)CC3)oc12 [Example 10, 2-[4-[3-(7-methoxycarbonylbenzoxazol-2-ylthio)propyl]piperazin-1-yl]-N-(2,6-diisopropylphenyl)acetamide] | – | 135 to 136 °C | pIC50 (J774 cells): 6.57; pIC50 (HepG2 cells): 5.31 |
| CC(C)c1cccc(C(C)C)c1NC(=O)CN1CCCN(CCCSc2nc3ccccc3o2)CC1 [Example 13, 2-[4-[3-(benzoxazol-2-ylthio)propyl]-homopiperazin-1-yl]-N-(2,6-diisopropylphenyl)acetamide] | 7400 µg/mL (≈ 14.5 mM) | 109 to 111 °C | – |
| CSc1cc(C)nc(SC)c1NC(=O)CN1CCN(CCSc2nc3ccccc3o2)CC1 [Example 24, 2-[4-[2-(benzoxazol-2-ylthio)ethyl]piperazin-1-yl]-N-(2,4-bis(methylthio)-6-methyl-3-pyridyl)acetamide] | 17000 µg/mL (≈ 33.7 mM) | 140 to 141 °C | – |
| CC(C)c1cc(O)cc(C(C)C)c1NC(=O)CN1CCN(CCCSc2nc3ccccc3o2)CC1 [Example 118, 2-[4-[3-(benzoxazol-2-ylthio)propyl]piperazin-1-yl]-N-(2,6-diisopropyl-4-hydroxyphenyl)acetamide] | – | 201 to 203 °C | – |
| COc1cc(C(C)C)c(NC(=O)CN2CCN(CCCSc3nc4ccccc4o3)CC2)c(C(C)C)c1 [Example 119, 2-[4-[3-(benzoxazol-2-ylthio)propyl]piperazin-1-yl]-N-(2,6-diisopropyl-4-methoxyphenyl)acetamide] | – | 129 to 130 °C | – |
| CCOCCOc1cc(C(C)C)c(NC(=O)CN2CCN(CCCSc3nc4ccccc4o3)CC2)c(C(C)C)c1 [Example 120, 2-[4-[3-(benzoxazol-2-ylthio)propyl]piperazin-1-yl]-N-[2,6-diisopropyl-4-(2-ethoxyethyloxy)phenyl]acetamide] | – | 115 to 117 °C | – |
| CC(C)c1cccc(C(C)C)c1NC(=O)CN1CCN(CCSc2nc3cccc([S+](C)[O-])c3o2)CC1 (centres unmarked) [Example 121, 2-[4-[2-(7-methanesulfinylbenzoxazol-2-ylthio)ethyl]piperazin-1-yl]-N-(2,6-diisopropylphenyl)acetamide] | – | 119 to 120 °C | – |
| Cc1ccc(C(C)C)c2oc(SCCN3CCN(CC(=O)Nc4c(C(C)C)cccc4C(C)C)CC3)nc12 [Example 122, 2-[4-[2-(7-isopropyl-4-methylbenzoxazol-2-ylthio)ethyl]piperazin-1-yl]-N-(2,6-diisopropylphenyl)acetamide] | – | 133 to 134 °C | – |
| CC(C)c1ccc(O)c(C(C)C)c1NC(=O)CN1CCN(CCSc2nc3cccc(C(F)(F)F)c3o2)CC1 [Example 130, 2-[4-[2-(7-trifluoromethylbenzoxazol-2-ylthio)ethyl]piperazin-1-yl]-N-(2,6-diisopropyl-3-hydroxyphenyl)acetamide] | – | 82 to 84 °C | – |
| CC(C)c1cc(O[C@@H]2O[C@H](CO)[C@@H](O)[C@H](O)[C@H]2O)cc(C(C)C)c1NC(=O)CN1CCN(CCSc2nc3cccc(C(F)(F)F)c3o2)CC1 [Example 134, 2-[4-[2-(7-trifluoromethylbenzoxazol-2-ylthio)ethyl]piperazin-1-yl]-N-[2,6-diisopropyl-4-(β-D-glucopyranosyl)oxyphenyl]acetamide] | – | 130 to 133 °C | – |
| CCCCCCCN(CCN1CCN(CCSc2nc3ncccc3o2)CC1)C(=O)Nc1c(C(C)C)cc(O)cc1C(C)C [Example 139, N′-(2,6-diisopropyl-4-hydroxyphenyl)-N-heptyl-N-[2-[4-[2-(oxazolo[4,5-b]pyridin-2-ylthio)ethyl]piperazin-1-yl]ethyl]urea] | – | 100 to 102 °C | – |
| CC(C)c1cc(CO)cc(C(C)C)c1NC(=O)CN1CCN(CCSc2nc3cccc(C(F)(F)F)c3o2)CC1 [Example 140, 2-[4-[2-(7-trifluoromethylbenzoxazol-2-ylthio)ethyl]piperazin-1-yl]-N-[2,6-diisopropyl-4-hydroxymethylphenyl]acetamide] | – | 146 to 148 °C | – |
| CC(C)c1cccc(C(C)C)c1NC(=O)CN1CCN(CCOc2nc3ccccc3[nH]2)CC1 [Example 154, 2-[4-[2-(benzimidazol-2-yloxy)ethyl]piperazin-1-yl]-N-(2,6-diisopropylphenyl)acetamide] | – | 205 to 206 °C | – |
| CC(C)c1ccc(F)c(C(C)C)c1NC(=O)CN1CCN(CCSc2nc3ccccc3o2)CC1 [Example 155, 2-[4-[2-(benzoxazol-2-ylthio)ethyl]piperazin-1-yl]-N-(2,6-diisopropyl-3-fluorophenyl)acetamide] | – | 142 to 144 °C | – |
| CC(C)c1cc(O)cc(C(C)C)c1NC(=O)CN1CCN(CCSc2nc3ccccc3[nH]2)CC1 [Example 156, 2-[4-[2-(benzimidazol-2-ylthio)ethyl]piperazin-1-yl]-N-(2,6-diisopropyl-4-hydroxyphenyl)acetamide] | – | 241 to 242 °C | – |
